Measurements taken from patent US20150329825A1, “COMPOSITIONS AND METHODS EMPLOYING STEM CELL-DERIVED CARDIOMYOCYTES” (THE REGENTS OF THE UNIVERSITY OF MICHIGAN, priority 2014, published 2015).

Assays:
Type in all cases: cell-based, human
[1] = system: hiPSC-CM monolayers; assay: 96 well optical mapping of intracellular calcium flux in hiPSC-CM monolayers under IKr blockade; settings: 100 nmol L^-1 E4031
Protocol: Briefly, monolayers were loaded with the intracellular Ca^2+ indicator, rhod-2AM (10 μmol L-1, Life Technologies). After a 30 minute incubation time, the cells were washed in Hanks balanced salt solution (HBSS, Life Technologies) for an additional 30 minutes before optical mapping recordings. […] Movies were filtered in both the time and space domain and conduction velocity (CV) was measured as described previously (Hou L, et al., Circulation Research. 2010;107:1503-1511, herein incorporated by reference in its entirety).
Small glass coverslips to fit into a 96 well format dish are not readily available so here plastic was used as the rigid comparator for PDMS.

[2] = system: hiPSC-CMs (iCell); assay: Western blotting for mature myofilament proteins (cTnI, β-MyHC) in hiPSC-CMs cultured with FAK inhibitor
[3] = system: hiPSC-CM monolayers; assay: Hypertrophic growth and monolayer formation of hiPSC-CMs on glass or PDMS coverslips with FAK inhibitor
Protocol: In a second set of experiments hiPSC-CM monolayers were fixed for immunocytochemistry following optical mapping recordings of impulse propagation as recently described (Lee P, et al., Circulation Research. 2012;110:1556-1563, herein incorporated by reference in its entirety). Briefly, cell monolayers were washed with PBS and then fixed with 4% paraformaldehyde for 10 minutes and rinsed twice before blocking with 10% normal donkey serum in PBS plus 0.1% Triton X-100 (Sigma) for 1.5 hours at room temperature. Primary antibodies were used to detect α-actinin (1:500, Sigma) in the cardiac sarcomeres and Cx43 (1:100, Millipore) and N-cadherin (1:200, BD Bioscience) at the intercellular junctions. The primary antibodies were added to 5% donkey serum in PBS plus 0.1% Triton X-100 and incubated overnight at 4° C. Subsequently, cells were washed three times in PBS plus 0.1% TRITON X-100. […] Protein localization was examined by laser scanning confocal microscopy with sequential laser firing for multiple fluorophores (Nikon AIR, Melville, N.Y.). iPSC-CM cross sectional area was calculated in NIS Elements software using N-cadherin staining of the cell membranes.
Integrins are transmembrane heterodimeric receptors essential for providing cell-extracellular matrix adhesion, cellular structural organization and transduction of mechanical signals from the extracellular matrix into biochemical signals in cardiomyocytes (Ross R S, et al., Circulation Research. 2001;88:1112-1119; Israeli-Rosenberg S, et al., The FASEB Journal. 2015;29:374-384; Israeli-Rosenberg S, et al., Circulation Research. 2014;114:572-586). β1 integrins are abundant in the adult heart and participate in the hypertophic response in rodent ventricular myoyctes (Ross et al., Circulation Research. […] Finally, the role of FAK activation in the hypertrophic response of hiPSC-CMs to the soft cell culture environment on PDMS was determined (FIG. 8D and FIG. 14).

[4] = 10 μmol L^-1 FAK inhibitor-14, cultured on PDMS

| Compound | CaTD80 post E4031 ([1]; PDMS bottom dishes, n=5, pre 579.8±13.9 ms) [ms] | effect on beat frequency and CaTD80 (in words) ([1]; PDMS bottom well) | reduction of spontaneous beating frequency ([1]; monolayers on matrigel coated PDMS, n=5) [%] | reduction of spontaneous beating frequency ([1]; monolayers on rigid plastic (matrigel coated), n=8) [%] | CaTD80 post E4031 ([1]; plastic bottom dishes, n=8, pre 605.9±24.3 ms) [ms] | effect on spontaneous beating frequency and CaTD80 (in words) ([1]; rigid plastic bottom dishes (matrigel coated)) | cTnI expression [2, 4] | β-MyHC expression [2, 4] | expression of mature myofilament protein isoforms including cTnI and β-MyHC ([2]; FIG. 8C legend) | monolayer formation and hiPSC-CM expansion in culture ([3]; 100 μmol L^-1, both Glass and PDMS) | hypertrophic growth of hiPSC-CMs ([3]; PDMS coverslips) | effect on hiPSC-CMs grown on glass coverslips ([3]; glass coverslips, effect only at 100 μmol L^-1) |
| --- | --- | --- | --- | --- | --- | --- | --- | --- | --- | --- | --- | --- |
| Cc1cccc(CCN2CCC(C(=O)c3ccc(NS(C)(=O)=O)cc3)CC2)n1 [E4031] | 780.1 ± 74.1 | more modest effect | ~20 | ~50 | 1873.8 ± 278.9 | very significant impact |  |  |  |  |  |  |
| Nc1cc(N)c(N)cc1N [FAK inhibitor-14] |  |  |  |  |  |  | failed to express cTnI | expressed less β-MyHC | prevents expression | prevented monolayer formation and hiPSC-CM expansion in culture | prevented hypertrophic growth | only affected at very high dose |
